The text below walks through data of ChEMBL document CHEMBL3046708, “The effect of pyridazine compounds on the cardiovascular system” (Med Chem Res, 2012).

Data set [1] concerns Sus scrofa. The experiment in a line: Cardiotoxicity in Sus scrofa (pig) assessed as increase in maximum rate of rise of left ventricular pressure at 0.05 to 0.5 ug/kg/min administered as 10 min infusion. It counts as toxicity, organism-based, Heart left ventricle. The following applies: in vivo, iv.
In data set [2] the test system is Sus scrofa. The experiment in a line: Cardiotoxicity in Sus scrofa (pig) assessed as increase in maximum rate of rise of left ventricular pressure at 2.5 to 25 ug/kg/min administered as 10 min infusion. Type of data set: toxicity, organism-based, Heart left ventricle. As to conditions: in vivo, iv.
In data set [3] the test system is Sus scrofa. The experiment in a line: Cardiotonic activity in iv dosed Sus scrofa (pig) assessed as change in left ventricular filling pressure administered as infusion. Type of data set: functional, Heart left ventricle.
In data set [4] the test system is Sus scrofa. The experiment in a line: Cardiotonic activity in iv dosed Sus scrofa (pig) assessed as change in left ventricular systolic pressure administered as infusion. It counts as functional, Heart left ventricle.
The test system of data set [5] is Sus scrofa. The experiment in a line: Cardiotoxicity in iv dosed Sus scrofa (pig) assessed as effect on maximum rate of rise of left ventricular pressure administered as infusion. The following applies: in vivo. Type of data set: toxicity, organism-based, Heart left ventricle.
Data set [6] has as its system Sus scrofa. The experiment in a line: Cardiotonic activity in iv dosed Sus scrofa (pig) assessed as change in heart rate administered as infusion. Type of data set: functional.

Molecules are shown by their SMILES.

As for `COC(=O)C1=C(C)NC(C)=C(C(=O)OCC(C)C)C1c1ccccc1[N+](=O)[O-]` (stereo unspecified) [NISOLDIPINE], the Activity in data set [1] was found to be 45%.

In the case of `COc1ccc(-c2nc3ccc(C4=NNC(=O)CC4C)cc3[nH]2)cc1` (stereo unspecified) [PIMOBENDAN], the Activity in data set [2] is 85%; in data set [3] it was -20%; in data set [4], -5%; in data set [5], 10%; in data set [6] it was 10%.
